Consider 15 compounds from ChEMBL document CHEMBL1201862, “PubChem BioAssay data set” (2004).

What all share (experiment): inhibition of tumour cell growth, NCI panel, 48 h
In test [1] the test system is BT-549.
The subject of test [2] is RPMI-8226.
For test [3], the system named is PC-3.
The test system of test [4] is NCI-H226.
The test system of test [5] is U-251.
The test system of test [6] is SK-MEL-2.
The subject of test [7] is SR.
For test [8], the system named is MCF7.
For test [9], the system named is EKVX.
The test system of test [10] is T47D.
Test [11] has as its system MDA-N.
The subject of test [12] is Hs-578T.
The subject of test [13] is SW-620.
The subject of test [14] is OVCAR-8.
Test [15] concerns SNB-19.

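Compound exposure: 48 hours, 5 concentrations, 96-well plates. GI50 is the concentration that inhibits growth by half.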 Active and inactive are the calls of the source. No stated cut-off is given here; in the data, active = GI50 up to about 1.1 µM and inactive = higher. Some results are limits rather than exact numbers.

In the case of `CC(=O)c1ccc(NC(=O)/C(CC(=O)/C=C/c2ccccc2)=N/NC(N)=S)cc1`, the GI50 was > 100 µM (inactive) in test [1]; 69.3 µM (inactive) in test [2]; > 100 µM (inactive) in [3]; > 100 µM (inactive) in test [4]; > 100 µM (inactive) in test [5]; > 100 µM (inactive) in test [6]. The GI50 is > 100 µM (inactive) in test [7]; 34.4 µM (inactive) in [8]; 47.2 µM (inactive) in [9]; 32.6 µM (inactive) in test [10]; > 100 µM (inactive) in test [11]; > 100 µM (inactive) in test [12]. Moreover, the GI50 in [13] is > 100 µM (inactive); in test [14], 87.7 µM (inactive).

As to `CC(Cc1ccccc1)NC1=NCCO1` (stereo not drawn), the GI50 in test [2] is 37.8 µM (inactive); in test [3] it was 34.8 µM (inactive); in test [15], 35.6 µM (inactive); in test [4], > 100 µM (inactive); in test [5] it was 25.1 µM (inactive); in test [6], 39.6 µM (inactive). The GI50 in test [7] is 42.8 µM (inactive); in test [8], > 100 µM (inactive); in [9], 54 µM (inactive); in test [10], 35.1 µM (inactive); in test [11] it was 25.9 µM (inactive); in test [12] it was 29.3 µM (inactive). The GI50 in [13] is 34.3 µM (inactive); in [14], 48.1 µM (inactive).

`Nc1ccc(S(=O)(=O)c2ccc(NCN3C(=O)NC(=O)C(=O)C3=O)cc2)cc1` [ALLANTODAPSONE]: the GI50 in [1], in test [3], in test [15], in test [4], in test [5] and in test [6] was > 100 µM (inactive) each time. Besides, the GI50 in [7], in [9], in [10], in test [11], in [12] and in test [13] was > 100 µM (inactive) in each case. In addition, the GI50 in test [14] is > 100 µM (inactive).

Turning to `CC[n+]1c(-c2ccccc2)c2cc(N)ccc2c2ccc(N)cc21` [HOMIDIUM BROMIDE], the GI50 in test [1] was 1.14 µM (inactive); in [3], 5.06 µM (inactive); in test [5], 4.38 µM (inactive); in [6], 2.08 µM (inactive); in [8] it was 2 µM (inactive); in test [10], 1.93 µM (inactive). Besides, the GI50 was 4.2 µM (inactive) in [11], < 0.01 µM (active) in test [12] and 3.67 µM (inactive) in [13].

`CN1C(=O)N(C)C2(CCN(CC(CC3OCCO3)c3ccc(F)cc3)CC2)C1=O` (stereo not drawn): the GI50 in test [1], in test [2], in [3], in [15], in [4] and in test [5] was > 100 µM (inactive) each time. For the same compound, the GI50 in test [6], in test [7], in [8], in [9], in test [10] and in test [11] was > 100 µM (inactive) each time. Besides, the GI50 in test [12] and in test [14] was > 100 µM (inactive) in each case.

As to `CCOC(=O)c1c(Cl)nc2ccccc2c1N=[N+]=[N-]`, the GI50 was 16.4 µM (inactive) in test [1]; 43.5 µM (inactive) in test [2]; 32.2 µM (inactive) in test [3]; > 100 µM (inactive) in test [15]; 32.1 µM (inactive) in test [4]; 24.5 µM (inactive) in test [5]. For the same compound, the GI50 is 19.2 µM (inactive) in [6]; 32.7 µM (inactive) in test [7]; 22.4 µM (inactive) in [9]; 22.7 µM (inactive) in [10]; 21 µM (inactive) in [11]; 24.9 µM (inactive) in [12]. The GI50 in [13] is 19.5 µM (inactive).

As for `O=C(C1=C(C(=O)c2ccccc2)SC2(S1)C(C(=O)c1ccccc1)=C(C(=O)c1ccccc1)Sc1c2ssc1=O)c1ccccc1`, the GI50 in [1] was 80.4 µM (inactive); in [3], > 100 µM (inactive); in [15] it was 24.6 µM (inactive); in [4], 27 µM (inactive); in test [5], 32.6 µM (inactive); in [6], 99.1 µM (inactive). Also, the GI50 in test [7] is 9.51 µM (inactive); in [8] it was > 100 µM (inactive); in test [9], > 100 µM (inactive); in test [10], 97.7 µM (inactive); in test [11], 41.1 µM (inactive); in test [12], > 100 µM (inactive). Moreover, the GI50 in [13] was 22 µM (inactive); in test [14] it was 44.5 µM (inactive).

For `N#CC1(C#N)C(c2ccccc2)NC23CCCCC2C1(C#N)C(=O)N3` (stereo not drawn), the GI50 in [1], in test [2], in [3], in test [15], in [4] and in test [5] was > 100 µM (inactive) in each case. Further, the GI50 was > 100 µM (inactive) in test [6]; 57.8 µM (inactive) in test [7]; > 100 µM (inactive) in [8]; > 100 µM (inactive) in test [9]; > 100 µM (inactive) in test [10]; > 100 µM (inactive) in [11]. In addition, the GI50 in test [13] and in test [14] was > 100 µM (inactive) in each case.

Take `C[Si](C)(N[Si](C)(C)OCCc1ccccc1)OCCc1ccccc1`: the GI50 in [1], in [2], in test [3], in [15], in test [4] and in test [5] was > 100 µM (inactive) in each case. In addition, the GI50 in test [6], in test [8], in test [9], in test [10], in [11] and in test [13] was > 100 µM (inactive) throughout. Moreover, in test [14], the GI50 was > 100 µM (inactive).

Regarding `CCN1CCC(O)(c2ccc(O)cc2)C(C(=O)c2ccc(O)cc2)C1` (stereo not drawn), the GI50 was 3.21 µM (inactive) in [2]; > 10 µM (inactive) in test [3]; > 100 µM (inactive) in test [15]; 29.3 µM (inactive) in [4]; > 100 µM (inactive) in [5]; 16.5 µM (inactive) in test [7]. Moreover, the GI50 is 3.18 µM (inactive) in test [8]; 28.2 µM (inactive) in test [9]; 8.77 µM (inactive) in [10]; 13.3 µM (inactive) in [12]; 2.95 µM (inactive) in [13]; 40.6 µM (inactive) in test [14].

On to `CCc1ccc2nc(-c3ccc(O)cc3)sc2c1`, for which the GI50 in [1] is 16.3 µM (inactive); in test [2] it was 13.9 µM (inactive); in test [3] it was 12.6 µM (inactive); in test [15], 14.7 µM (inactive); in test [4], 13.2 µM (inactive); in [5] it was 17.7 µM (inactive). Moreover, the GI50 is 16.5 µM (inactive) in test [6]; 20.2 µM (inactive) in test [8]; 18.5 µM (inactive) in [11]; 20.6 µM (inactive) in [13]; 19.5 µM (inactive) in [14].

On to `COC(=O)/C=C1/N=C(N(C)/N=C/c2ccccc2)NC1=O`, for which the GI50 in test [1], in [3], in [15], in [6], in test [7] and in test [8] was > 100 µM (inactive) in each case. Moreover, the GI50 in test [9], in [10], in test [11], in test [12], in [13] and in test [14] was > 100 µM (inactive) in each case.

Turning to `O=C(Nc1nccs1)c1c(O)nc2sccn2c1=O`, the GI50 in test [2], in test [3], in test [15], in [4], in test [5] and in [6] was > 10 µM (inactive) throughout. The GI50 in test [7], in test [8], in [9], in test [10], in test [11] and in [12] was > 10 µM (inactive) throughout. Moreover, the GI50 in [13] and in test [14] was > 10 µM (inactive) each time.

On to `C/C(C[n+]1ccccc1)=N\N=C(N)N`, for which the GI50 in test [1], in test [2], in test [3], in test [15], in test [4] and in [5] was > 100 µM (inactive) each time. In addition, the GI50 in [6] is 73.8 µM (inactive); in test [8], > 100 µM (inactive); in test [9] it was > 100 µM (inactive); in test [10], > 100 µM (inactive); in test [11] it was > 100 µM (inactive); in [12] it was > 100 µM (inactive). For the same compound, the GI50 in [13] and in [14] was > 100 µM (inactive) in each case.

On to `O=C(CCc1ccc(O)cc1)NCCc1cccc(O)c1`, for which the GI50 in test [1], in test [3], in test [15], in [5], in test [6] and in test [7] was > 50 µM (inactive) each time. In addition, the GI50 in test [8], in test [9], in [10], in [11], in test [12] and in test [14] was > 50 µM (inactive) in each case.
